Experimental data published in the supplement of paper PMC4862054.
Several values for one entry are separate records, joined by “and”; a condition that tells them apart may be missing. Identical values can stand only once.

How the values were obtained:
Settings in all cases: incubation time: 72 h
HCC1599 [1] = experiment: normalised viability (% of control), CellTiter-Blue; higher = more viable cells (100 = DMSO, 0 = benzethonium chloride kill control)
Method: (§1)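 DSRT, CellTiter-Blue viability, 72 h incubation. Signal is normalised to DMSO and benzethonium chloride controls. Value is the normalised response at dose 1.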

HCC1143 [2] = experiment: as above
Method: as §1

SK-BR-3 [3] = experiment: as above
Method: as §1

Hs578T [4] = experiment: as above
Method: as §1

HCC1937 [5] = experiment: as above
Method: as §1

BT-474 [6] = experiment: as above
Method: as §1

MDA-MB-453 [7] = experiment: as above
Method: as §1

CAL-148 [8] = experiment: as above
Method: as §1

MDA-MB-231 [9] = experiment: as above
Method: as §1

MFM-223 [10] = experiment: as above
Method: as §1

CAL-120 [11] = experiment: as above
Method: as §1

DU-4475 [12] = experiment: as above
Method: as §1

MDA-MB-468 [13] = experiment: as above
Method: as §1

CAL-51 [14] = experiment: as above
Method: as §1

MDA-MB-436 [15] = experiment: as above
Method: as §1

CAL-85-1 [16] = experiment: as above
Method: as §1

BT-549 [17] = experiment: as above
Method: as §1

HCC1599 [18] = experiment: normalised response (% of control), CellTiter-Glo; higher = more viable cells (100 = DMSO, 0 = benzethonium chloride kill control)
Method in brief: (§2)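 Each entry is the normalised signal at a single concentration within a series. The series comprised 5 concentrations in 10-fold steps over a compound-specific 10,000-fold range, placed in 384-well plates into which breast cancer cell lines were seeded as 20 µl suspension and incubated 72 h. CellTox Green (485/520 nm) fluorescence and then CellTiter-Glo luminescence were read, with signals normalised per plate to 0.1 % DMSO (100) and a positive kill control (0).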

HCC1143 [19] = experiment: as above
Method in brief: as §2

SK-BR-3 [20] = experiment: as above
Method in brief: as §2

Hs578T [21] = experiment: as above
Method in brief: as §2

HCC1937 [22] = experiment: as above
Method in brief: as §2

BT-474 [23] = experiment: as above
Method in brief: as §2

MCF-10A = experiment: as above
Method in brief: as §2

MDA-MB-453 [24] = experiment: as above
Method in brief: as §2

CAL-148 [25] = experiment: as above
Method in brief: as §2

MDA-MB-231 [26] = experiment: as above
Method in brief: as §2

MFM-223 [27] = experiment: as above
Method in brief: as §2

CAL-120 [28] = experiment: as above
Method in brief: as §2

HDQ-P1 [29] = experiment: as above
Method in brief: as §2

DU-4475 [30] = experiment: as above
Method in brief: as §2

MDA-MB-468 [31] = experiment: as above
Method in brief: as §2

CAL-51 [32] = experiment: as above
Method in brief: as §2

MDA-MB-436 [33] = experiment: as above
Method in brief: as §2

CAL-85-1 [34] = experiment: as above
Method in brief: as §2

BT-549 [35] = experiment: as above
Method in brief: as §2

MDA-MB-453 [36] = experiment: normalised viability (% of control), CellTiter-Blue; higher = more viable cells (about 100 = DMSO control)
Method: (§3)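 DSRT, CellTiter-Blue viability, 72 h incubation. Signal is normalised to DMSO and benzethonium chloride controls. Value is the normalised response at dose 9.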

CAL-148 [37] = experiment: as above
Method: as §3

HDQ-P1 [38] = experiment: as above
Method: as §3

DU-4475 [39] = experiment: as above
Method: as §3

CAL-51 [40] = experiment: as above
Method: as §3

CAL-85-1 [41] = experiment: as above
Method: as §3

Q: Which results are given for `CS(=O)(=O)CCNCc1ccc(-c2ccc3ncnc(Nc4ccc(OCc5cccc(F)c5)c(Cl)c4)c3c2)o1` [Lapatinib] (1 nM)?
A: normalised viability (HCC1599 [1]): 114% and 97.8%; normalised viability (HCC1143 [2]): 87% and 88%; normalised viability (SK-BR-3 [3]): 92.7% and 105%; normalised viability (Hs578T [4]): 100% and 124%; normalised viability (HCC1937 [5]): 99.3% and 105%; normalised viability (BT-474 [6]): 85.4% and 94.8%; normalised viability (MDA-MB-453 [7]): 99.8% and 92.5%; normalised viability (CAL-148 [8]): 97.7% and 107%; normalised viability (MDA-MB-231 [9]): 86.6% and 96.8%; normalised viability (MFM-223 [10]): 96.7% and 95.1%; normalised viability (CAL-120 [11]): 83.3% and 87.2%; normalised viability (DU-4475 [12]): 96.4% and 93.1%; normalised viability (MDA-MB-468 [13]): 108% and 114%; normalised viability (CAL-51 [14]): 116% and 104%; normalised viability (MDA-MB-436 [15]): 104% and 115%; normalised viability (CAL-85-1 [16]): 90.3% and 86.8%; normalised viability (BT-549 [17]): 88.8% and 94.3%; normalised response (HCC1599 [18]): 90.2%; normalised response (HCC1143 [19]): 105%; normalised response (SK-BR-3 [20]): 116%; normalised response (Hs578T [21]): 104%; normalised response (HCC1937 [22]): 100%; normalised response (BT-474 [23]): 105%; normalised response (MCF-10A): 99.3%; normalised response (MDA-MB-453 [24]): 108%; normalised response (CAL-148 [25]): 110%; normalised response (MDA-MB-231 [26]): 99.5%; normalised response (MFM-223 [27]): 107%; normalised response (CAL-120 [28]): 100%; normalised response (HDQ-P1 [29]): 95.7%; normalised response (DU-4475 [30]): 107%; normalised response (MDA-MB-468 [31]): 106%; normalised response (CAL-51 [32]): 77.7%; normalised response (MDA-MB-436 [33]): 99.3%; normalised response (CAL-85-1 [34]): 93.4%; normalised response (BT-549 [35]): 95.4%

Q: For `COC(=O)C[C@](O)(CCCC(C)(C)O)C(=O)O[C@@H]1C(OC)=C[C@]23CCCN2CCc2cc4c(cc2[C@H]13)OCO4` [Omacetaxine mepesuccinate] (10000 nM), which normalised viability (MDA-MB-453 [36]) is on record?
A: The normalised viability was 2.46%.

Q: And the normalised viability (CAL-148 [37])?
A: The normalised viability was 5.68%.

Q: What about the normalised viability (HDQ-P1 [38]) of the same molecule?
A: Its normalised viability is 15.2%.

Q: What about the normalised viability (DU-4475 [39]) of the same molecule?
A: Its normalised viability is 1.55%.

Q: And the normalised viability (CAL-51 [40])?
A: The normalised viability was 3.97%.

Q: And the normalised viability (CAL-85-1 [41])?
A: The normalised viability was 2.22%.

Q: Which normalised viability (MDA-MB-453 [36]) does the source give for `COc1cc(Nc2ncc(F)c(Nc3ccc4c(n3)NC(=O)C(C)(C)O4)n2)cc(OC)c1OC` [R406] (10000 nM) here?
A: Its normalised viability is 110%.

Q: And the normalised viability (CAL-148 [37])?
A: The normalised viability was 99.8%.

Q: And the normalised viability (HDQ-P1 [38])?
A: The normalised viability was 108%.

Q: And the normalised viability (DU-4475 [39])?
A: The normalised viability was 102%.

Q: What about the normalised viability (CAL-51 [40]) of the same molecule?
A: Its normalised viability is 97.8%.

Q: And the normalised viability (CAL-85-1 [41])?
A: The normalised viability was 94.6%.

Q: Which normalised viability (MDA-MB-453 [36]) does the source give for `c1ccc(C2CN3CCSC3=N2)cc1` (centres undefined) [Tetramisole] (10000 nM) here?
A: Its normalised viability is 99.5%.

Q: And the normalised viability (CAL-148 [37])?
A: The normalised viability was 117%.

Q: And the normalised viability (HDQ-P1 [38])?
A: The normalised viability was 116%.

Q: What about the normalised viability (DU-4475 [39]) of the same molecule?
A: Its normalised viability is 101%.

Q: And the normalised viability (CAL-51 [40])?
A: The normalised viability was 89.3%.

Q: What about the normalised viability (CAL-85-1 [41]) of the same molecule?
A: The normalised viability was 98.1%.
